Test: extraction/separation performance test (solvent extraction of Pr/Nd, back extraction, ICP atomic emission)
Type: physicochemical
Conditions: aqueous Pr:Nd 1:1, 0.1 mol/L Pr+Nd, 20° C.
Method: The stoichiometric amount of the reaction product, D2EHDGAA in Example 1 or Comparative Example 1 was diluted with hexanol to form an organic solution having a D2EHDGAA concentration of 0.3 mol/L, which might become an organic phase.
A mixed rare earth metal aqueous solution was prepared by dissolving praseodymium chloride and neodymium chloride in water in a molar ratio Pr:Nd of 1:1 and a concentration of 0.1 mol/L of Pr+Nd to form an aqueous solution, which might become an aqueous phase. A separatory funnel was charged with 100 mL of the organic solution and 100 mL of the aqueous solution and shaken at 20° C. for about 20 minutes to effect extraction. After equilibrium was reached, the liquid was allowed to separate into organic and aqueous phases. A separatory funnel was charged with 100 mL of the thus separated organic phase and 100 mL of 5N hydrochloric acid and shaken at 20° C. for about 20 minutes whereby the rare earth element once extracted in the organic phase was back extracted in the hydrochloric acid aqueous solution. The concentrations of praseodymium and neodymium in the aqueous phase and the back-extracted hydrochloric acid aqueous solution were measured by an ICP atomic emission spectrometer ICP-7500 (Shimadzu Corp.).
The stoichiometric amount of the reaction product, D2EHDGAA in Example 5, 6 or Comparative Example 5, 6 was diluted with toluene to form an organic solution having a D2EHDGAA concentration of 0.3 mol/L, which might become an organic phase.

Row | Compound | Nd/Pr separation factor (D2EHDGAA 0.3 mol/L in toluene) | Phase separation (D2EHDGAA 0.3 mol/L in toluene) | Nd/Pr separation factor (D2EHDGAA 0.3 mol/L in kerosene) | Phase separation (D2EHDGAA 0.3 mol/L in kerosene) | also measured
1 | CCCCC(CC)CN(CC(CC)CCCC)C(=O)COCC(=O)O (stereo not drawn) [Example 1, N,N-bis(2-ethylhexyl)-3-oxapentane-1,5-amic acid] |  |  |  |  | Nd/Pr separation factor (D2EHDGAA 0.3 mol/L in hexanol): 2.5; Phase separation (D2EHDGAA 0.3 mol/L in hexanol): definite
2 | CCCCC(CC)CN(CC(CC)CCCC)C(=O)COCC(=O)O (stereo not drawn) [Example 6, N,N-bis(2-ethylhexyl)-3-oxapentane-1,5-amic acid] | 2.5 | definite |  |  | 
3 | CCCCCCCCN(CCCCCCCC)C(=O)COCC(=O)O [Example 2, N,N-dioctyl-3-oxapentane-1,5-amic acid] |  |  |  |  | Nd/Pr separation factor (DODGAA 0.3 mol/L in hexanol): 2.5; Phase separation (DODGAA 0.3 mol/L in hexanol): definite
4 | CCCCC(CC)CN(CC(CC)CCCC)C(=O)COCC(=O)O (stereo not drawn) [Example 5, N,N-bis(2-ethylhexyl)-3-oxapentane-1,5-amic acid] | 2.5 | definite |  |  | 
5 | CCCCC(CC)CN(CC(CC)CCCC)C(=O)COCC(=O)O (stereo not drawn) [Example 4, N,N-bis(2-ethylhexyl)-3-oxapentane-1,5-amic acid] |  |  | 2.5 | definite | 
6 | CCCCC(CC)CN(CC(CC)CCCC)C(=O)COCC(=O)O (stereo not drawn) [Example 3, N,N-bis(2-ethylhexyl)-3-oxapentane-1,5-amic acid] |  |  | 2.5 | definite | 

Source: US8841482B2, “Method for synthesizing rare earth metal extractant” (Shin-Etsu Chemical Co., Ltd., priority 2010, dated 2014)
